Measurements reported in ChEMBL document CHEMBL4346696, “PIM kinase inhibitors: Structural and pharmacological perspectives” (Eur J Med Chem, 2019).
One block for each compound: values may come before it.

Experiments:
[1] = Cytotoxicity against human […] cells after 24 hrs by MTT assay; format: functional, cell-based
MCF7 = test: Cytotoxicity against human MCF7 cells after 24 hrs by MTT assay; format: functional, cell-based; conditions: MCF7, 24 h
[2] = target: T1, Serine/threonine-protein kinase pim-1 (Homo sapiens, UniProt P11309); test: Inhibition of N-terminal GST-tagged recombinant human full length Pim-1 expressed in Escherichia coli cells
HT-29 = test: Cytotoxicity against human HT-29 cells after 24 hrs by MTT assay; format: functional, cell-based; conditions: HT-29, 24 h
[3] = target: T1, Serine/threonine-protein kinase pim-1; test: Inhibition of PIM1 (unknown origin)
Homo sapiens [4] = species on record: Homo sapiens; test: Selectivity ratio of IC50 for PI3kdelta (unknown origin) to Ki for PIM1 (unknown origin)
Homo sapiens [5] = species on record: Homo sapiens; test: Selectivity ratio of IC50 for PI3kgamma (unknown origin) to Ki for PIM1 (unknown origin)
Homo sapiens [6] = species on record: Homo sapiens; test: Selectivity ratio of IC50 for PI3kalpha (unknown origin) to Ki for PIM1 (unknown origin)

T1 sequence (P11309 whole entry): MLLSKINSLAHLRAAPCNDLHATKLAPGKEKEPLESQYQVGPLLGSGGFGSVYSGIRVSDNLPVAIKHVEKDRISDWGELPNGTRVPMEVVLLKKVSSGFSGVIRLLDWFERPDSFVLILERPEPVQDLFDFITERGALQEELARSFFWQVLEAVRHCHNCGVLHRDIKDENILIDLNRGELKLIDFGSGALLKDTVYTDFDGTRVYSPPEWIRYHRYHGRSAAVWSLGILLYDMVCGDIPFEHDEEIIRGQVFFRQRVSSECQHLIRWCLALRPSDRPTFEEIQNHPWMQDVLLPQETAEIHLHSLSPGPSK

- Ki [2]: 7.7 nM
SMILES: O=C1NC(=O)/C(=C/c2ccnc(N3CCC(CNCc4ccc5ccccc5n4)CC3)n2)S1

- IC50 [3]: < 150 nM
SMILES: CSc1ncc(-c2cc(-c3ccc(Br)cc3)[nH]c(=N)c2C#N)n1Cc1ccccc1
- IC50 (HT-29): > 130000 nM

- IC50 [3]: < 150 nM
SMILES: CSc1ncc(-c2cc(-c3ccc(Br)cc3)[nH]c(=O)c2C#N)n1Cc1ccccc1
- IC50 (HT-29): > 130000 nM

The next lines start with the compound.

SMILES: Cc1nc2sc3c(c2c(C)c1Br)NC(c1ccc(O)c(O)c1)NC3=O (centres undefined)
- IC50 [1]: 60 to 1760 nM
- IC50 (MCF7): 60 to 1760 nM

SMILES: CSc1ncc(-c2cc(-c3ccc4c(c3)OCO4)[nH]c(=N)c2C#N)n1Cc1ccccc1
- IC50 (HT-29): > 130000 nM

SMILES: CC(C)(O)[C@H]1CC[C@H](Nc2ccc3ncc(-c4cccc(C(F)(F)F)c4)n3n2)CC1
- Ratio (Homo sapiens [4]): 10
- Ratio (Homo sapiens [5]): 10
- Ratio (Homo sapiens [6]): 10

SMILES: COc1cc(C2NC(=O)c3sc4nc(C)c(Br)c(C)c4c3N2)ccc1O (centres undefined)
- IC50 [1]: 60 to 1760 nM
- IC50 (MCF7): 60 to 1760 nM

SMILES: CSc1ncc(-c2cc(-c3ccc4c(c3)OCO4)[nH]c(=O)c2C#N)n1Cc1ccccc1
- IC50 (HT-29): > 130000 nM
